Measured values as given in paper PMC5062570 (Nature Communications, 2016).
“Also recorded” adds a separate entry of the source. Where two headings read alike, the source gives them in different places.

Experiments:
[1] = molecular target: T1, BACE2 (Homo sapiens, UniProt Q9Y5Z0); assay: BACE2 purified enzyme fluorescence polarization assay; format: biochemical
T1 construct: purchased R&D Systems 4097-AS
T1 sequence (Q9Y5Z0 63-518): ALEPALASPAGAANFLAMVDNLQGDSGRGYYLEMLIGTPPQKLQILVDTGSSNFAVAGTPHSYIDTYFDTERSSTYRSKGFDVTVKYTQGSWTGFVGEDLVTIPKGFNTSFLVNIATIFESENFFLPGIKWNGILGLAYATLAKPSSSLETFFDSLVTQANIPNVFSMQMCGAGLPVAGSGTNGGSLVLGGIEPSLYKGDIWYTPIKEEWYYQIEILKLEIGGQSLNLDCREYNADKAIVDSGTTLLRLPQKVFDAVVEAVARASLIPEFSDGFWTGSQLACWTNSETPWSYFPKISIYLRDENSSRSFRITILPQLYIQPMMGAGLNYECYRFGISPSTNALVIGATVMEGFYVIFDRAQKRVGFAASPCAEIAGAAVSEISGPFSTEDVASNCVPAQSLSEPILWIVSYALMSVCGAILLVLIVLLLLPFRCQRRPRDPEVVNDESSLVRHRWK
Method: (§1) Purified enzyme inhibition of BACE1, BACE2, CatD and CatE was determined using fluorescence polarization (FP) assays. Briefly, purified enzymes were treated with test compounds (1% DMSO, 37 °C) in the presence of synthetic peptide substrates (150 nM) in 30 μl total volume of NaOAc buffer (100 mM, pH 4.5, 0.0001% Tween-20) in a 384-well plate. After incubation, reactions were stopped and substrate captured by the addition of 1.5 μM streptavidin, and FP measured with an EnVision plate reader (PerkinElmer, excitation 485 nm, emission 530 nm). […] BACE2 activity was assessed with 0.5 nM recombinant BACE2 (R&D Systems 4097-AS) and the same synthetic substrate used for BACE1, with a 1 h incubation time. […] CatE activity was assessed with 1.0 nM recombinant CatE (Creative BioMart CTSE-255H) and the same synthetic substrate used for CatD, with a 1.5 h incubation time.

[2] = molecular target: T2, ~30 kDa band (CatD heavy chain) in ARPE-19 cells (Homo sapiens, UniProt P07339); assay: Live cell PF-7802 labelling, in-gel fluorescence analysis; format: cell-based; conditions: pretreatment 2 µM inhibitor, PF-7802 100 nM
T2 construct: host or cells: ARPE-19
T2 sequence (P07339 169-412 limits assumed): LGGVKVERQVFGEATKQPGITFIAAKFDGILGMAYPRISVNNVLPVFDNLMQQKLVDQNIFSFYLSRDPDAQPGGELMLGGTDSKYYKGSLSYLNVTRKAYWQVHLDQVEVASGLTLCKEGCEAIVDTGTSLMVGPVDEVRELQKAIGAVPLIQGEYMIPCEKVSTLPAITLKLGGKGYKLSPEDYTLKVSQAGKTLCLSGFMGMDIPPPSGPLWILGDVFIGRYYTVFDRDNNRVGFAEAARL
T2 sequence (P07339 65-162 limits assumed): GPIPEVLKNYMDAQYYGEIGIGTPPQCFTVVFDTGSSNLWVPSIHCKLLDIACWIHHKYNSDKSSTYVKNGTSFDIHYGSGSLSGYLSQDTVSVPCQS
Method: Cells were lysed with sonication on ice in 70 μl DPBS and protein concentrations were determined using a BCA assay (Pierce). […] Gels were fixed in 50% MeOH/7% AcOH for 15 min, then rinsed with 40% MeOH for at least 20 min before in-gel fluorescence scanning (Typhoon Trio, excitation 532 nm, emission 580 nm).

[3] = system: CatD protein level in ARPE-19 cells; assay: Chronic ARPE-19 inhibitor treatment and CatD ELISA; format: cell-based, human; conditions: 300 pM-10 μM, 7 days
Method: ARPE-19 cells were plated in 96-well plates at a density of 2 × 10^4 cells per well. After 12–24 h, media was removed and replaced with media containing test compounds at the indicated concentration. After 7 days of compound incubation (no media changes or additional test compound treatments), conditioned media was collected for a cytotoxicity assay, and attached cells were washed once with DPBS and then lysed on ice with gentle pipetting followed by a 20 min extraction in 50 μl in ice-cold RIPA buffer (50 mM Tris, pH 7.4, 150 mM NaCl, 1 mM EDTA, 1% NP40, 1% Na deoxycholate, 0.1% SDS) supplemented with 1 mM PMSF (Sigma) and EDTA-free protease inhibitor cocktail tablets (Roche). Cytotoxicity was determined from conditioned media using an LDH assay (Pierce 88954) as per the manufacturer's protocol. CatD protein levels were measured by ELISA (EMD Millipore Q1A29) as per the manufacturer's protocol. For both the LDH assay and the ELISA, absorbance was read on an EnVision plate reader (PerkinElmer). Data were normalized to DMSO and plotted in GraphPad Prism.

[4] = molecular target: T3, BACE1 (Homo sapiens, UniProt P56817); assay: BACE1 purified enzyme fluorescence polarization assay; format: biochemical; design: His (C); made in house; host or cells: CHO-K1
Method: as §1
Target sequence in this assay (P56817 46-457): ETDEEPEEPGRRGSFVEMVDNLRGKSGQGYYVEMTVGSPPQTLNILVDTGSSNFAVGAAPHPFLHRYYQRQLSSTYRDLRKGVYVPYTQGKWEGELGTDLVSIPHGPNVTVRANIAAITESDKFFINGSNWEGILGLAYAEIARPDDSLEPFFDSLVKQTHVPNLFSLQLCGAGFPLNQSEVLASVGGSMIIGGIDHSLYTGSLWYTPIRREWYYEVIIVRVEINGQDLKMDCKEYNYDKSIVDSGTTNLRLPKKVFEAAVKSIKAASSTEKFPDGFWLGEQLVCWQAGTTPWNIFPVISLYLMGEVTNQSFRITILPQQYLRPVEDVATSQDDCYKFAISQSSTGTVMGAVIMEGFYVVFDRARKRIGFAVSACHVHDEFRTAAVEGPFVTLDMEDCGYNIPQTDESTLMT

[5] = molecular target: T4, CatD (Homo sapiens, UniProt P07339); assay: CatD purified enzyme fluorescence polarization assay; format: biochemical; design: final maturation into a non-covalently associated heavy chain and light chain; purchased Sigma C8696; host or cells: human liver
Method: as §1
Target sequence in this assay (P07339 65-162 limits assumed): as the sequence (P07339 65-162 limits assumed) above
Target sequence in this assay (P07339 169-412 limits assumed): as the sequence (P07339 169-412 limits assumed) above

[6] = pKa determination by multiplexed capillary electrophoresis; format: physicochemical; conditions: aqueous buffers
Method: All pKa values were determined at Analiza, Inc. by multiplexed capillary electrophoresis (mCE) using 96-capillary array electrophoresis instrument to measure the effective mobility (migration time of the compound in relation to neutral marker, DMSO) with ultraviolet detection. The pKa values were obtained from the ionization curves by plotting the compound effective mobility (24 points across pH range 1.7–11.2) versus pH. All pKa results were determined using aqueous buffers with method average absolute error 0.12.

[7] = system: retinal pigment epithelium (RPE); assay: Exploratory toxicology, ocular toxicity by retinal histology in rats; format: in vivo; conditions: rat
Method: (§2) Wistar Han rats (obtained from Charles River, 125–300 g, 6–9 weeks old at study start, see Supplementary Table 7 for number of males and females) received daily oral dosing of test compounds or vehicle at the indicated concentrations for 7–29 days as indicated. The doses were prepared in a solution of 0.5% methylcellulose and 0.2% polysorbate 80, or 0.5% methylcellulose and hydroxypropyl methylcellulose acetate succinate (high fine grade) and delivered in a volume of 10 ml kg^−1 per day. Blood samples for bioanalytical analysis were collected in K2EDTA tubes via jugular vessel. Plasma was isolated after centrifugation and stored at −20 °C prior to analysis. Animals were given an additional dose the day after the end of the study (days 8, 15 or 30 for 7, 14 and 29 day studies, respectively) then killed by gas anaesthesia (isoflurane) followed by exsanguination ∼3 h after this final dose.

[8] = Plasma exposure (average unbound plasma concentration) in rats; format: in vivo, rat; conditions: rat; for concentration at 7 days: Wistar Han, oral; for concentration at 7 days / concentration at 29 days: average unbound plasma concentration, read-out: Avg Cp,u parent; for concentration at 29 days / Avg Cp,u metabolite: 14 days; for Avg Cp,u metabolite: metabolite of the dosed compound
Method: as §2
Plasma samples were analysed after protein precipitation by treating 20 μl of sample matrix with 200 μl of acetonitrile containing internal standard. All samples were centrifuged at 3,000 r.p.m. for 5 min. Then 100 μl of supernatant was transferred to a clean plate and evaporated to dryness under N2. Samples were reconstituted in 200 μl of 80:20 (v:v) acetonitrile:water. Samples were analysed on Waters Acquity UPLC connected to AB Sciex API5500 QTrap MS/MS.
Plasma protein binding was determined in the Rapid Equilibrium Device (RED, Thermo Scientific). Frozen plasma was warmed to 37 °C and adjusted to pH 7.4. The plasma was spiked with compound to a final concentration of 2 μM. Aliquots of spiked plasma were added to the donor (red) side, followed by addition of buffer to the receiver (white) side. The RED device was covered with a gas-permeable membrane and agitated within a humidified CO2 incubator (5% CO2, 75% relative humidity). Plasma (15 μl) and buffer (45 μl) were sampled from each insert and were matrix-matched with appropriate blank matrix (plasma with 45 μl buffer and buffer with 15 μl of plasma). Samples were protein-precipitated with acetonitrile containing internal standard, and the resulting supernatant was analysed by LC-MS/MS.

[9] = system: retinal pigment epithelium (RPE); design: method as in PMID 22090477, PMID 25361751; conditions: cited from earlier work
[10] = molecular target: T4, CatD; assay: CatD cellular assay (competition of PF-7802 photolabelling in live ARPE-19 cells); format: cell-based; design: host or cells: ARPE-19; conditions: for CatD potency increase in live cells: CatD enzyme IC50 versus CatD cellular IC50
Method: ARPE-19 cells were plated at a density of 1.2 × 10^6 cells per well in six-well dishes 12–24 h before probe labelling. Culture media was removed completely and replaced with 1 ml of the appropriate serum-free media (no supplements) per well. Cells were then pretreated with test compounds at the indicated concentrations for 30 min (0.5% DMSO, 37 °C, 5% CO2). […] Ultraviolet irradiation was performed without culture plate lids for efficient irradiation, and samples were slowly rotated to prevent evaporation. After ultraviolet irradiation, cells were washed twice with Dulbecco's phosphate-buffered saline (DPBS), scraped into DPBS, centrifuged and stored as pellets at −80 °C.
Cells were lysed with sonication on ice in 70 μl DPBS and protein concentrations were determined using a BCA assay (Pierce). Total protein concentrations were then normalized to 1 mg ml^−1 in 50 μl total volume before addition of 5.5 μl click chemistry mix (1 : 3 : 1 : 0.5 volume of 50 mM CuSO4 (Sigma) in H2O : 1.7 mM TBTA (Sigma) in 4:1 t-BuOH:DMSO : 50 mM TCEP (Hampton Research) in dPBS : 10 mM TAMRA-azide (Lumiprobe) in DMSO - mixed immediately before use. Reagent solutions can be premade and stored at 4 °C except for TCEP, which should be made immediately before use). […] All fluorescence gels are presented in greyscale.
Target sequence in this assay (P07339 169-412 limits assumed): as above
Target sequence in this assay (P07339 65-162 limits assumed): as the sequence (P07339 65-162 limits assumed) above

[11] = molecular target: T3, BACE1; assay: BACE1 biochemical cellular assay (sAPPβ ELISA in H4 cells overexpressing APP695); format: cell-based; design: endogenous in cells; host or cells: H4 human neuroglioma cells overexpressing human APP695; conditions: for BACE1 potency increase in live cells: BACE1 enzyme IC50 versus BACE1 cellular IC50
Method: Cellular inhibition of BACE1 was determined by measuring sAPPβ, the primary cleavage product of BACE-1, in H4 human neuroglioma cells overexpressing the wild-type human APP695. […] The colorimetric reaction was read by an EnVision plate reader (PerkinElmer).
Target sequence in this assay (P56817 46-501): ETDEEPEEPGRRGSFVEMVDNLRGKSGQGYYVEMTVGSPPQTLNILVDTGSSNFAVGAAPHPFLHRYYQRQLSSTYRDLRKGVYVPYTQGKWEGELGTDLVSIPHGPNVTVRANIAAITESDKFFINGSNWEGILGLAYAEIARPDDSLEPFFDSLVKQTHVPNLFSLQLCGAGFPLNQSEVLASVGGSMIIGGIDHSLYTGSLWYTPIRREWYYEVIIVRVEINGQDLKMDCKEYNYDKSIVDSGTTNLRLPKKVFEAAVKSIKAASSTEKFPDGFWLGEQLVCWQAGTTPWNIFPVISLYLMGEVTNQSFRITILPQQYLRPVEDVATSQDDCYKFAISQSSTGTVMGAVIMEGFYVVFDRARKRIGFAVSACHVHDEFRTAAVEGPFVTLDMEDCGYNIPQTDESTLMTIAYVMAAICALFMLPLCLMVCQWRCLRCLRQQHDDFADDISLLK

[12] = In vivo metabolism of BACE1 inhibitors in rats; design: species or system rat
[13] = 14 days, 110 mg kg-1 once daily

CNC1CCN(C(=O)C[C@@H](Cc2ccccc2)C(=O)N[C@@H](CSC)C(=O)N[C@@H](CC2CCCCC2)[C@@H](O)C(=O)OC(C)C)CC1 [CP-108671, reference compound]
BACE2 activity [1]: no activity
Competition of PF-7802 labelling of the 30 kDa band [2]: blocked labelling of the 30 kDa band
CatD protein accumulation (ELISA) [3]: could be reproduced
BACE1 activity [4]: no BACE1 activity
Inhibition of purified CatD ([5]; purified CatD biochemical substrate assay): potent; also recorded: nanomolar potency

C[C@@]1(c2cc(-c3cncnc3)c(F)cc2F)CCSC(N)=N1 [LY2811376, reference compound]
pKa ([6]; read-out: pKa): 8.9
Competition of PF-7802 labelling of the 30 kDa band [2]: blocked labelling of the 30 kDa band
Male ocular toxicity incidence (positive or negative animals / total evaluated) ([7]; 7 days, 25 mg kg-1 once daily): 1/4
Male ocular toxicity outcome ([7]; 7 days, 25 mg kg-1 once daily): Pos
Male ocular toxicity incidence (positive or negative animals / total evaluated) ([7]; 7 days, 75 mg kg-1 once daily): 4/4
Male ocular toxicity outcome ([7]; 7 days, 75 mg kg-1 once daily): Pos
concentration at 7 days ([8]; 25 mg kg-1 once daily): 741 nM
concentration at 7 days ([8]; 75 mg kg-1 once daily): 4370 nM
Ocular toxicity in preclinical animal models [9]: ocular toxicity in preclinical animal models
CatD potency difference between cell-free enzyme and cellular assays [10]: 95 fold
CatD potency increase in live cells [10]: 95 x
BACE1 potency increase in live cells [11]: 18 x

Cc1coc([C@H]2C[C@H]3[C@@H](CF)SC(N)=N[C@@]3(c3ccc(F)cc3F)CO2)n1 [PF-1283]
IC50 ([1]; purified human enzyme, fluorescence polarization): 95 nM
pKa [6]: 7.0
Female ocular toxicity incidence (positive or negative animals / total evaluated) ([7]; 14 days, 45 mg kg-1 once daily): 3/3
Female ocular toxicity outcome ([7]; 14 days, 45 mg kg-1 once daily): Neg (negative (neg) if there was no ocular abnormality observed)
Male ocular toxicity incidence (positive or negative animals / total evaluated) ([7]; 14 days, 45 mg kg-1 once daily): 3/3
Male ocular toxicity outcome ([7]; 14 days, 45 mg kg-1 once daily): Neg (negative (neg) if there was no ocular abnormality observed)
Female ocular toxicity incidence (positive or negative animals / total evaluated) [7, 13]: 1/3
Female ocular toxicity outcome [7, 13]: Pos
Male ocular toxicity incidence (positive or negative animals / total evaluated) [7, 13]: 3/3
Male ocular toxicity outcome [7, 13]: Neg (negative (neg) if there was no ocular abnormality observed)
concentration at 29 days ([8]; 45 mg kg-1 once daily): 109 nM
Avg Cp,u metabolite ([8]; 45 mg kg-1 once daily): 352 nM
concentration at 29 days ([8]; 110 mg kg-1 once daily): 793 nM
Avg Cp,u metabolite ([8]; 110 mg kg-1 once daily): 859 nM
Stability to oxidative metabolism [12]: significantly more stable to oxidative metabolism; also recorded: significantly less susceptible to oxidative metabolism
CatD potency increase in live cells [10]: 54 x
IC50 ([10]; live ARPE-19 cells, PF-7802 photoprobe 100 nM, 30 min): 240 nM
IC50 ([4]; purified human enzyme, fluorescence polarization, peptide substrate): 120 nM
BACE1 potency increase in live cells [11]: 12 x
IC50 ([11]; sAPPβ ELISA, H4 neuroglioma cells with human wild-type APP): 10 nM
IC50 ([5]; purified human enzyme, fluorescence polarization, substrate-based): 13000 nM
